In PubChem BioAssay (NCI):
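48-hour exposure; five concentrations; linearly interpolated endpoints. At the TGI there is no net growth.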

How the values were obtained:
Experiment in all cases: NCI anticancer screen, dose series, 48 h
HOP-92 NSCLC = tested on: HOP-92 NSCLC
HCT-116 colon = tested on: HCT-116 colon
SNB-75 CNS = tested on: SNB-75 CNS
OVCAR-3 ovarian = tested on: OVCAR-3 ovarian
TK-10 renal = tested on: TK-10 renal
HT29 colon = tested on: HT29 colon
ACHN renal = tested on: ACHN renal
HS 578T breast = tested on: HS 578T breast
RXF 393 renal = tested on: RXF 393 renal
MDA-MB-231 breast = tested on: MDA-MB-231 breast
SK-MEL-5 melanoma = tested on: SK-MEL-5 melanoma
HCC-2998 colon = tested on: HCC-2998 colon
NCI-H226 lung = tested on: NCI-H226 lung

Structure (SMILES)	TGI (HOP-92 NSCLC) [µM]	TGI (HCT-116 colon) [µM]	TGI (SNB-75 CNS) [µM]	TGI (OVCAR-3 ovarian) [µM]	TGI (TK-10 renal) [µM]	TGI (HT29 colon) [µM]	TGI (ACHN renal) [µM]	TGI (HS 578T breast) [µM]	TGI (RXF 393 renal) [µM]	TGI (MDA-MB-231 breast) [µM]	TGI (SK-MEL-5 melanoma) [µM]	TGI (HCC-2998 colon) [µM]	TGI (NCI-H226 lung) [µM]
Cc1nc2c(sc(=S)n2-c2ccccc2)c2nc3ncccc3n12	> 100	> 100	64.5	> 100	> 100	> 100	> 100	> 100	> 100	> 100	> 100	> 100	
c1ccc(C2C3=C(Nc4ncnn42)c2ccccc2C3)cc1 (stereo not given)	> 100	> 100	> 100	30.3	> 100	> 100	> 100		> 100		> 100	> 100	
NC(C(F)(F)F)(C(F)(F)F)P(=O)(Cc1ccccc1)Cc1ccccc1		> 100	> 100	> 100	> 100	> 100	> 100	> 100	> 100	> 100	> 100	> 100	
CC1=C2C(=O)NN=C2CCN1c1ccc(Br)cc1	> 100	> 100	> 100	> 100	> 100	> 100	> 100	> 100		> 100	> 100		> 100
Cc1ccc(C(=O)Nc2ccc(CP(=O)(O)O)cc2CP(=O)(O)O)cc1NC(=O)c1cccc(N)c1		> 100	> 100	> 100	> 100	> 100	> 100	> 100	> 100	> 100	> 100	> 100	> 100
COc1cc2c(cc1OC)C1=Cc3cc(OC)c(OC)cc3C(C)N1C=C2 (stereo not given)	> 100	> 100	> 100	> 100	> 100	> 100	> 100	> 100	> 100		> 100	> 100	> 100
CCOC(=O)C1Cc2[nH]c3ccccc3c2C(C)C1C (stereo not given)	32	32.6	34.4	30.1	76		39.8				26.9		25.3
COc1ccc(-n2c(=O)c3[nH]cnc3n(-c3ccc(OC)cc3)c2=S)cc1	> 100	> 100	> 100	> 100	> 100	> 100	> 100		> 100	> 100	> 100	> 100	> 100
COc1ccc(N2C(=O)C3c4[nH]c5ccc(OCc6ccccc6)cc5c4C4CCC(C(C)(C)C)CC4C3C2=O)cc1 (stereo not given)		> 100		> 100	> 100	> 100	> 100	> 100	> 100	> 100	> 100	> 100	> 100
OCCCCCNc1c2ccccc2nc2ccccc12		21.1	12.5	> 28.8	20.3	20.7	1.42	8.57	10.9	10.7	3.95	3.36	
Cc1ccc(-c2c(C#N)c(-c3ccccc3)n(NS(=O)(=O)c3ccccc3)c(=O)c2C#N)cc1	> 100	> 100	> 100		> 100	> 100	> 100		> 100	> 100	> 100	> 100	> 100
O=C(CCCCCCCCC(=O)NN1C(=O)/C(=C\c2ccc(O)c(O)c2)SC1c1ccc(Cl)cc1)NN1C(=O)/C(=C\c2ccc(O)c(O)c2)SC1c1ccc(Cl)cc1 (stereo not given)	43.8	> 100	> 100	> 100	> 100	> 100	71.8		46.2	> 100	> 100	> 100	> 100
c1ccc2c(c1)OC(N1CCCC1)c1cnc(N3CCCC3)nc1-2 (stereo not given)	47.3	> 100	57.1	97.5	> 100	> 100	> 100	89.7	47.8	> 100			> 100
OCc1ccc2[n+](c1)CCC1c3ccccc3NC21 (stereo not given)	> 300	> 300		> 300	> 300	> 300	> 300		> 300		> 300	> 300	> 300
CC(C)(C)C1=C(Br)C(Br)(C(C)(C)C)OP1(=O)c1ccccc1 (stereo not given)	> 100	> 100	> 100	> 100	> 100	> 100	> 100	> 100	> 100		> 100	> 100	
CC[C@]1(Cc2ccc(OC)c(OC)c2)CN(S(=O)(=O)c2ccc(C)cc2)C[C@@H]1OC(C)=O	> 100		> 100	> 100	> 100	> 100	> 100	> 100	> 100	> 100	> 100	> 100	> 100
O=C(O)c1c2c(cc3c1CC1(Cc4ccccc4C1)C3)CCC2	52.5		> 100	> 100	> 100	> 100	> 100	> 100	> 100	> 100	> 100	> 100	> 100
Cc1cc(N(CCC#N)CCC#N)ccc1/C=N/NC(=O)c1cc(Cl)ccc1O		> 100	> 100	> 100	> 100	> 100		> 100	> 100	> 100	> 100	> 100	> 100
COC(=O)CC(C(C(=O)OC)C(=O)OC)N1C(=O)OCC1c1ccccc1 (stereo not given)	> 100	> 100	> 100	> 100	> 100	> 100	> 100		> 100		> 100	> 100	> 100
Cc1nnc(Nc2ccccc2)o1		> 100	> 100	> 100	> 100	> 100	> 100		> 100		> 100		> 100

Structure (SMILES)	TGI (HOP-92 NSCLC) [µM]	TGI (HCT-116 colon) [µM]	TGI (SNB-75 CNS) [µM]	TGI (OVCAR-3 ovarian) [µM]	TGI (TK-10 renal) [µM]	TGI (HT29 colon) [µM]	TGI (ACHN renal) [µM]	TGI (HS 578T breast) [µM]	TGI (RXF 393 renal) [µM]	TGI (MDA-MB-231 breast) [µM]	TGI (SK-MEL-5 melanoma) [µM]	TGI (HCC-2998 colon) [µM]	TGI (NCI-H226 lung) [µM]
Cn1cc2ccccc2c1-c1nc(N)nc(F)n1	> 100	> 100	> 100	> 100	> 100	> 100	> 100		> 100		> 100	> 100	> 100
CC1(C)OCC(COC(=O)C=[N+]=[N-])O1 (stereo not given)	> 100	> 100		> 100	> 100	> 100	> 100		> 100	> 100	> 100	> 100	> 100
C[C@@]12[C@H]3CC[C@@H]1[C@H](O)C(=O)N2CC3	> 100		> 100	> 100	> 100	> 100	> 100	> 100	> 100	> 100	> 100	> 100	> 100
CC(C)(C)c1ccc2c(c1)CNCCNCc1cc(C(C)(C)C)ccc1OCC1(CO2)COc2ccc(C(C)(C)C)cc2CNCCNCc2cc(C(C)(C)C)ccc2OC1	2.58	2.99	2.96	3.12	3.32	0.472	2.98			0.623	3.37	0.786	2.26
O=C(Nc1ccc(Br)cc1)c1c(-c2ccccc2)c2ccc(O)cc2oc1=O	> 10		> 10	> 10	> 10	> 10	> 10	> 10	> 10	> 10	> 10	> 10	> 10
CC(C)=CCOC(=O)C(C)=[N+]=[N-]		> 100	> 100	> 100	> 100	> 100	> 100	> 100		> 100	> 100	> 100	> 100
CCN1CC2=C(NC(=S)NC2c2ccc(Cl)cc2)/C(=C/c2ccc(Cl)cc2)C1 (stereo not given)		> 100	> 100	> 100	> 100	> 100	> 100	> 100	> 100	> 100	> 100	> 100	> 100
COc1ccc(C2Oc3c(cc(O)c(OC)c3C)[C@@H]2C)cc1OC (stereo not given in full)	> 100	> 100	> 100	> 100	> 100	> 100	> 100		> 100		> 100	> 100	> 100
CC(CN1c2ccccc2Sc2ccccc21)N(C)C (stereo not given)	35.4	28.9	15.2	31.1		30.8	30.7		37.5	32.4	35.6	37.5	34.5
COc1ccc(C(C#N)NNC(=O)c2ccccc2O)cc1OC (stereo not given)		> 100	> 100	> 100	> 100	> 100	96.6		36.4		46.9		22.4
COC(=O)C(CCC#N)(CCC#N)C(=O)OC		> 100		> 100		> 100	> 100				> 100	> 100	> 100
C=C1CC(COc2cc(=O)oc3ccccc23)(c2ccccc2)OC1=O (stereo not given)	2.34	2.87	12.3	1.87	3.89	3.4	4.54	27.5		11.9	3.35	4.21	19.3
Cc1nc(-c2ccc([N+](=O)[O-])cc2)cn2c1nc1ccccc12	> 100	> 100	69	> 100	> 100	> 100		> 100	> 100	> 100			> 100
CC(O[Si](c1ccccc1)(c1ccccc1)C(C)(C)C)[C@H](NC(=O)OC(C)(C)C)C(=O)O[Si](c1ccccc1)(c1ccccc1)C(C)(C)C (stereo not given in full)	23.2	23.7	29		31.1	23.9	23.9	44.4	26.9		30.9	34.7	
Cc1nc2c(nc1Cl)nc(Oc1ccc(Cl)cc1)c1ccccc12		> 100	> 100	> 100		> 100	> 100				> 100	> 100	79.9
OCC1CCCCCCCCCCC12SCCCS2 (stereo not given)	> 100	> 100	> 100	> 100	> 100	> 100	> 100	> 100			> 100		> 100
O=c1[nH]n2c(=O)cc[nH]c2c1-c1nnns1	> 100	> 100	> 100	> 100	> 100	> 100	> 100		> 100		> 100	> 100	> 100
NC(N)=NS(=O)(=O)c1ccc(NCc2c3ccccc3[n+]([O-])c3ccccc23)cc1	28.5	31.9	84.8	> 100	> 100	> 100	70.4				33.5	> 100	72.8
O=C(/C=C/c1ccc(O)c([N+](=O)[O-])c1)CC(=O)/C=C/c1ccc(O)c([N+](=O)[O-])c1		> 100	> 100	> 100	> 100	> 100	> 100	> 100	> 100	68	> 100		> 100
